These results are taken from patent publication US20170252383A1, “AGENT FOR PROMOTING GROWTH OF NONPATHOGENIC ORAL INDIGENOUS BACTERIA OR AGENT FOR IMPROVING ORAL BACTERIAL FLORA, AND COMPOSITION FOR ORAL USE” (HOKUTO CORPORATION, priority 2014, published 2017).

Holding throughout (experiment): Growth-promoting effects on normal bacteria in oral cavity (Experimental Example 2)
What all share (format): cell-based
What all share (settings): powder 0.01% in distilled water (triclosan concentration not printed), aerobic 37° C., 12 hours, turbidity relative to control without sample

The test system of assay [1] is Streptococcus gordonii ATCC 10558. Here is the method: (§1) Dry-ground mushroom powder suspensions obtained by dispersing the dry-ground powders of various mushrooms prepared as described above to a concentration of 0.01% in distilled water, and 4% aqueous solutions of the various mushroom extracts obtained as described above, were each added as samples in 100 μL portions to 96-well plates.
(§2) Next, 100 μL of suspensions of the bacteria shown in Tables 1 and 2 were added to the dry-ground mushroom powder suspensions and mushroom extracts serving as these samples, and the bacteria were cultured aerobically at 37° C. for 12 hours. The bacterial suspensions used were prepared by pre-culturing the bacteria in a tryptic soy medium (TS medium; Becton and Dickinson), and inoculating the pre-cultured bacteria to a 2% concentration in a 2-fold concentration TS medium.
(§3) Bacterial proliferation was measured, calculated and evaluated in the same way as in Experimental Example 1.
(§4) The indigenous oral bacteria used in evaluation were of the following three species purchased from the ATCC.
Streptococcus gordonii ATCC 10558 (S. gordonii)
(§5) Prior to turbidity measurement, the culture fluids were stirred by shaking the plates.

In assay [2] the test system is Streptococcus mitis ATCC 47456. The procedure: as §1, §2, §3, §4
Streptococcus mitis ATCC 47456 (abbreviated below as S. mitis)
as §5

Assay [3] has as its system Streptococcus oralis ATCC 9811. The procedure:
as §1, §2, §3, §4
Streptococcus oralis ATCC 9811 (abbreviated below as S. oralis)
as §5

On to `Oc1cc(Cl)ccc1Oc1ccc(Cl)cc1Cl` [Triclosan, triclosan], for which the figures for the “Degree of bacterial growth due to dry-ground powders, S. gordonii” value in assay [1] and in assay [1] (listed as triclosan) were 0 and “suppressed growth”, respectively. In addition, the “Degree of bacterial growth due to dry-ground powders, S. mitis” value is reported as 0 in assay [2] and “suppressed growth” in assay [2] (listed as triclosan). Further, the results for the “Degree of bacterial growth due to dry-ground powders, S. oralis” value in assay [3] and in assay [3] (listed as triclosan) were 0 and “suppressed growth”, respectively.
